Laboratory results from patent US12357596B2, “Compounds for prevention and treatment of obesity and related disorders” (ABREXA PHARMACEUTICALS, INC., priority 2019, dated 2025).
Marks after values point to notes of the source that are not given here.

Experiments:
[1] = 28-Day Oral (Gavage) Toxicity Study in Beagle Dogs with a 14-Day Recovery Period at 0, 1, 10 and 30 mg/kg/day (body weight); format: in vivo
Experimental: (§1) J147 was administered once daily to beagle dogs via oral gavage for up to 28 days at a daily dose of 0, 1, 10 and 30 mg/kg. J174 was prepared in a vehicle formulation comprising 5% ethanol, 5% DMSO and 90% corn oil (v/v/v). Block Lab Diet (Certified Canine Diet #5007, PMI Nutrition International, Inc.) was offered via limited feedings, except during designated periods. The animals were offered food 2 hours postdose on each dosing day for 2 to 5 hours. Food was offered 2 to 5 hours/day during the acclimation period and during the recovery period. Tap water was available ad libitum via an automatic watering system. The study protocol is shown below in Table 10.

[2] = Toxicokinetics in satellite animals of the 28-day oral gavage study (plasma, Day 1); format: in vivo, Sprague-Dawley rats; details: Sprague-Dawley, rat, Day 1, 30 mg/kg/day (NOAEL), for information only (ISR failed)
Experimental: J147 or vehicle was administered once daily to Sprague-Dawley rats via oral gavage for 28 consecutive days at a daily dose of 0, 30, 100 or 300 mg/kg. J174 was prepared in a vehicle formulation comprising 5% ethanol, 5% DMSO and 90% corn oil (v/v/v). Certified rodent diet and water was available ad libitum. Groups 1-4 contained 10 animals/sex/group. Groups 1 (control) and 4 (high dose) also included an additional 5 animals/sex/group for use as recovery animals. The recovery animals were maintained on study for a 14-day postdosing recovery period. Animals in Groups 1-4 were monitored for morbidity and mortality, clinical signs, detailed clinical observations, body weight, food consumption, ophthalmologic parameters, neurobehavioral assessment consisting of a Functional Observational Battery (FOB) and a motor activity test, hematology, coagulation, serum chemistry, and urinalysis parameters. Postmortem assessment included necropsy, measurement of selected organ weights, and microscopic evaluation of a standard set of tissues. Plasma samples for bioanalysis were collected on Days 1 and 28 from satellite toxicokinetic animals in Groups 5 through 8. Animals in these groups were euthanized following the last blood sampling and carcasses were discarded without examination. The study protocol is shown below in Table 1.
Additionally, analysis of Day 28 samples also occurred outside the known long-term stability (LTS) range of the validated bioanalytical method. Thus, the bioanalytical and toxicokinetic results for J147 are considered to be for information only. The bioanalytical and toxicokinetic analysis results should also be considered in light of the fact that Day 28 samples were analyzed outside of their LTS.
Given that there was clear evidence of toxicity at the mid and high dose groups, the Study Director believes that this study met the objective of examining the toxicity profile of J147. […] Under the conditions of this study, the no-observed-adverse-effect-level (NOAEL) for J147 was considered to be 30 mg/kg/day. […] Cmax and AUC0-last values should be considered in light of the caveats mentioned in the preceding paragraph. The lowest-observed-adverse-effect-level (LOAEL) is 100 mg/kg/day in both sexes based on test article-related decreases in body weight/body weight gain and food consumption, decreased activity, decreases in measures of red blood cell mass, decreased prothrombin time, decreased serum glucose and triglycerides, decreased thymus weights, and single cell necrosis of pancreatic acinar cells in males.

[3] = Oral gavage study up to 28 days at 0, 30, 100 and 300 mg/kg/day (body weight, food consumption); format: in vivo, beagle dogs
Experimental: as §1, with “J147 or vehicle” for “J147”, “30, 100” for “1, 10”, “300” for “30”, “post-dose” for “postdose”, “9.” for “10.”

[4] = female dogs, 30 mg/kg/day, Day 28
[5] = male dogs, 30 mg/kg/day, Day 28
[6] = dogs, all J147-treated groups (30, 100, 300 mg/kg/day), both sexes
[7] = female dogs, 100 mg/kg/day, Day 28
[8] = female dogs, 300 mg/kg/day, Day 21 versus the Day 28 control value
[9] = male dogs, 100 mg/kg/day, Day 28
[10] = male dogs, 300 mg/kg/day, Day 22 versus the Day 28 control value

COc1cccc(/C=N/N(C(=O)C(F)(F)F)c2ccc(C)cc2C)c1 [J147]
Conclusion on body weight ([1]; dogs, 28-day oral gavage): induces weight loss and inhibits weight gain | Body weight and food consumption finding ([1]; dogs, Groups 3 and 4, 10 mg/kg/day and 30 mg/kg/day): Body weight loss with lower food consumption | Weight lost compared to pre-test levels (up to) ([1]; dogs, males and females, 10 mg/kg/day): up to −9% | Body Weight, Mean ([1]; female dogs, 1 mg/kg/day, Day 3): 6.463 kg | Body Weight, Mean ([1]; female dogs, 1 mg/kg/day, Day 7): 6.513 kg | Body Weight, Mean ([1]; female dogs, 1 mg/kg/day, Day 10): 6.675 kg | Body Weight, Mean ([1]; female dogs, 1 mg/kg/day, Day 14): 6.688 kg | Body Weight, Mean ([1]; female dogs, 1 mg/kg/day, Day 17): 6.763 kg | Body Weight, Mean ([1]; female dogs, 1 mg/kg/day, Day 21): 6.788 kg | Body Weight, Mean ([1]; female dogs, 1 mg/kg/day, Day 24): 6.813 kg | Body Weight, Mean ([1]; female dogs, 1 mg/kg/day, Day 28): 6.813 kg | Body Weight, Mean ([1]; female dogs, 1 mg/kg/day, Day −1 (pre-dose)): 6.413 kg | Animals that lost weight ([1]; female dogs, 10 mg/kg/day): 4 of 4 | Body Weight, Mean ([1]; female dogs, 10 mg/kg/day, Day 3): 6.363 kg | Body Weight, Mean ([1]; female dogs, 10 mg/kg/day, Day 7): 6.250 kg | Body Weight, Mean ([1]; female dogs, 10 mg/kg/day, Day 10): 6.275 kg | Body Weight, Mean ([1]; female dogs, 10 mg/kg/day, Day 14): 6.150 kg | Body Weight, Mean ([1]; female dogs, 10 mg/kg/day, Day 17): 6.163 kg | Body Weight, Mean ([1]; female dogs, 10 mg/kg/day, Day 21): 6.063 kg | Body Weight, Mean ([1]; female dogs, 10 mg/kg/day, Day 24): 6.038 kg | Body Weight, Mean ([1]; female dogs, 10 mg/kg/day, Day 28): 5.988 kg | Body Weight, Mean ([1]; female dogs, 10 mg/kg/day, Day −1 (pre-dose)): 6.325 kg | Animals that lost weight ([1]; female dogs, 30 mg/kg/day): 6 of 6 | Weight lost, of pretest levels (up to) ([1]; female dogs, 30 mg/kg/day): ≤ −17% | Body Weight, Mean ([1]; female dogs, 30 mg/kg/day, Day 3): 6.308 kg | Body Weight, Mean ([1]; female dogs, 30 mg/kg/day, Day 7): 6.242 kg | Body Weight, Mean ([1]; female dogs, 30 mg/kg/day, Day 10): 6.192 kg | Body Weight, Mean ([1]; female dogs, 30 mg/kg/day, Day 14): 6.033 kg | Body Weight, Mean ([1]; female dogs, 30 mg/kg/day, Day 17): 5.858^a kg | Body Weight, Mean ([1]; female dogs, 30 mg/kg/day, Day 21): 5.700^b kg | Body Weight, Mean ([1]; female dogs, 30 mg/kg/day, Day 24): 5.575^b kg | Body Weight, Mean [1, 4]: 5.525^b kg | Body Weight, Mean ([1]; female dogs, 30 mg/kg/day, Day −1 (pre-dose)): 6.258 kg | Body Weight, Mean ([1]; male dogs, 1 mg/kg/day, Day 3): 7.850 kg | Body Weight, Mean ([1]; male dogs, 1 mg/kg/day, Day 7): 7.838 kg | Body Weight, Mean ([1]; male dogs, 1 mg/kg/day, Day 10): 8.000 kg | Body Weight, Mean ([1]; male dogs, 1 mg/kg/day, Day 14): 8.000 kg | Body Weight, Mean ([1]; male dogs, 1 mg/kg/day, Day 17): 8.075 kg | Body Weight, Mean ([1]; male dogs, 1 mg/kg/day, Day 21): 8.200 kg | Body Weight, Mean ([1]; male dogs, 1 mg/kg/day, Day 24): 8.325 kg | Body Weight, Mean ([1]; male dogs, 1 mg/kg/day, Day 28): 8.250 kg | Body Weight, Mean ([1]; male dogs, 1 mg/kg/day, Day −1 (pre-dose)): 7.813 kg | Animals that lost weight ([1]; male dogs, 10 mg/kg/day): 3 of 4 | Body Weight, Mean ([1]; male dogs, 10 mg/kg/day, Day 3): 7.588 kg | Body Weight, Mean ([1]; male dogs, 10 mg/kg/day, Day 7): 7.675 kg | Body Weight, Mean ([1]; male dogs, 10 mg/kg/day, Day 10): 7.763 kg | Body Weight, Mean ([1]; male dogs, 10 mg/kg/day, Day 14): 7.625 kg | Body Weight, Mean ([1]; male dogs, 10 mg/kg/day, Day 17): 7.563 kg | Body Weight, Mean ([1]; male dogs, 10 mg/kg/day, Day 21): 7.663 kg | Body Weight, Mean ([1]; male dogs, 10 mg/kg/day, Day 24): 7.638 kg | Body Weight, Mean ([1]; male dogs, 10 mg/kg/day, Day 28): 7.500 kg | Body Weight, Mean ([1]; male dogs, 10 mg/kg/day, Day −1 (pre-dose)): 7.563 kg | Animals that lost weight ([1]; male dogs, 30 mg/kg/day): 5 of 6 | Weight lost, of pretest levels (up to) ([1]; male dogs, 30 mg/kg/day): up to −12% | Body Weight, Mean ([1]; male dogs, 30 mg/kg/day, Day 3): 7.900 kg | Body Weight, Mean ([1]; male dogs, 30 mg/kg/day, Day 7): 7.933 kg | Body Weight, Mean ([1]; male dogs, 30 mg/kg/day, Day 10): 8.008 kg | Body Weight, Mean ([1]; male dogs, 30 mg/kg/day, Day 14): 7.967 kg | Body Weight, Mean ([1]; male dogs, 30 mg/kg/day, Day 17): 7.883 kg | Body Weight, Mean ([1]; male dogs, 30 mg/kg/day, Day 21): 7.800 kg | Body Weight, Mean ([1]; male dogs, 30 mg/kg/day, Day 24): 7.825 kg | Body Weight, Mean [1, 5]: 7.600 kg | Body Weight, Mean ([1]; male dogs, 30 mg/kg/day, Day −1 (pre-dose)): 7.908 kg | AUC(0-t) ([2]; female rats): 233 ng·h/mL | Cmax ([2]; female rats): 50.8 ng/mL | AUC(0-t) ([2]; male rats): 835 ng·h/mL | Cmax ([2]; male rats): 146 ng/mL | Body weight and body weight gain compared to the vehicle-treated control group [3, 6]: decreased | Food consumption compared to the vehicle-treated control group [3, 6]: decreased | Decrease of group mean body weight [3, 4]: 19% | Decrease of group mean food consumption [3, 4]: 45% | Decrease of group mean body weight [3, 7]: 21% | Decrease of group mean food consumption [3, 7]: 48% | Decrease of group mean body weight [3, 8]: 23% | Decrease of group mean food consumption [3, 8]: 38% | Decrease of group mean body weight [3, 5]: 23% | Decrease of group mean food consumption [3, 5]: 31% | Decrease of group mean body weight [3, 9]: 26% | Decrease of group mean food consumption [3, 9]: 39% | Decrease of group mean body weight [3, 10]: 18% | Decrease of group mean food consumption [3, 10]: 48%
